Measurements reported in ChEMBL document CHEMBL4732142, “Discovery of the First Druggable GPR52 Antagonist to Treat Huntington's Disease” (J Med Chem, 2021).
Activity calls are given as the source filed them. The calls are words filed in the database; no cut-off is given here.

Legend:
[1] = Neuroprotective activity in HdhQ140 mouse model assessed as alleviation of motor deficiency at 5 mg/kg, iv; format: organism-based; settings: in vivo
[2] = organism: Mus musculus; assay: Neuroprotective activity in primary striatal neurons from HdhQ140 mouse assessed as rescue of mHTT-induced neuronal survival loss; format: functional, organism-based; settings: Neuron
[3] = system: Mus musculus; assay: Neuroprotective activity in HdhQ140 mouse assessed as decrease in staining intensity of microglia at 0.5 mM, icv by Iba1staining based analysis; format: functional, organism-based
[4] = Drug uptake in mouse brain at 5 mg/kg, iv; format: ADME, organism-based; settings: in vivo, read-out: Drug uptake
[5] = system: Mus musculus; assay: Neuroprotective activity in primary striatal neurons from HdhQ140 mouse assessed as rescue of mHTT-induced neuronal survival loss at 5 mg/kg, iv; format: functional, organism-based
[6] = system: Mus musculus; assay: Neuroprotective activity in HdhQ140 mouse assessed as decrease in staining intensity of microglia at 5 mg/kg, iv by Iba1staining based analysis; format: functional, organism-based
[7] = molecular target: G-protein coupled receptor 52 (Mus musculus, UniProt P0C5J4); assay: In-vivo antagonist activity at GPR52 in HdhQ140 mouse model with GPR52 knockdown assessed as decrease in mHTT levels; format: functional
Chain of G-protein coupled receptor 52 (P0C5J4 whole entry): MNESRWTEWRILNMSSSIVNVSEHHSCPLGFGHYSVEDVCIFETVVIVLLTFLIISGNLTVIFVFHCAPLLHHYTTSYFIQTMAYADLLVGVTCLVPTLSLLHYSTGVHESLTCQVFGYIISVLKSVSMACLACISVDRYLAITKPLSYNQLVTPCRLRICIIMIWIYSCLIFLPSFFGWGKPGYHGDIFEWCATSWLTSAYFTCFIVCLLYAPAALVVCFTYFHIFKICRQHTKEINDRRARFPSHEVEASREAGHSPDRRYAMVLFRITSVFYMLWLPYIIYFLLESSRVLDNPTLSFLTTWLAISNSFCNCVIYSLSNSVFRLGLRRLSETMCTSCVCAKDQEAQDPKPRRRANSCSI

Row | concentration [4] | IC50 [7] | Structure (SMILES) | Activity [1] | Activity [2] | Activity [3] | Activity [5] | Activity [6]
1 | 20 nM | – | O=C(/C=C/CCc1ccccc1)c1cccs1 | Toxic | Active | Active | Active | Active
2 | – | 6 µM | O=C(/C=C/CCc1ccccc1)CCc1ccccc1 | – | – | – | – | –
